Assays:
[1] = molecular target: Proto-oncogene tyrosine-protein kinase Src (Homo sapiens, UniProt P12931); assay: Inhibition of p60 c-Src tyrosine kinase enzyme activity in liquid-phase tyrosine phosphorylation assay at 830 ng/mL
[2] = molecular target: T1, Epidermal growth factor receptor (Homo sapiens, UniProt P00533); assay: Concentration required for inhibition of epidermal growth factor receptor (EGF-R) by tyrosine kinase enzyme activity
[3] = molecular target: Proto-oncogene tyrosine-protein kinase Src (Gallus gallus, UniProt P00523); assay: Concentration required for inhibition of c-Src mediated phosphorylation of Fak in IC8.1 fibroblast cell assay; assay type: functional, cell-based
[4] = molecular target: T2, Tyrosine-protein kinase ABL (Homo sapiens, UniProt P00519+P42684)
Description: Concentration required for inhibition of v-Abl receptor by tyrosine kinase enzyme assay

[5] = molecular target: T1, Epidermal growth factor receptor; assay: Inhibition of autophosphorylation of epidermal growth factor receptor (EGF-R) in a cellular assay
[6] = molecular target: T2, Tyrosine-protein kinase ABL; assay: Inhibition of v-Abl receptor tyrosine kinase enzyme activity; assay type: protein assay
[7] = molecular target: T1, Epidermal growth factor receptor; assay: Inhibition of epidermal growth factor receptor (EGF-R)

Chain of Proto-oncogene tyrosine-protein kinase Src (Homo sapiens, UniProt P12931) (P12931 2-536 limits assumed): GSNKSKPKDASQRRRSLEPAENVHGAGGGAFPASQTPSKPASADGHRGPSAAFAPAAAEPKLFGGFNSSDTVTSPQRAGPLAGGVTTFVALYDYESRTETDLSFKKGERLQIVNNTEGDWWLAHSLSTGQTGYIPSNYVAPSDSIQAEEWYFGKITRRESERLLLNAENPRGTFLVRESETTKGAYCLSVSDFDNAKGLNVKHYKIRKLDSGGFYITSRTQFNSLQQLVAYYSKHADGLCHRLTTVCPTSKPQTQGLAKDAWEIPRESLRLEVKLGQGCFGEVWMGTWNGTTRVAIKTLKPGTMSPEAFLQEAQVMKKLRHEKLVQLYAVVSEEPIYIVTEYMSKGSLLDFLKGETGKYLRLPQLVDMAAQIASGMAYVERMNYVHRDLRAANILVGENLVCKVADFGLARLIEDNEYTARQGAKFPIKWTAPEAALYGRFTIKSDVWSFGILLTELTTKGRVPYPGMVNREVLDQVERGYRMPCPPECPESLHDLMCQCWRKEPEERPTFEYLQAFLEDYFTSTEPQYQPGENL
T1 sequence (P00533 whole entry): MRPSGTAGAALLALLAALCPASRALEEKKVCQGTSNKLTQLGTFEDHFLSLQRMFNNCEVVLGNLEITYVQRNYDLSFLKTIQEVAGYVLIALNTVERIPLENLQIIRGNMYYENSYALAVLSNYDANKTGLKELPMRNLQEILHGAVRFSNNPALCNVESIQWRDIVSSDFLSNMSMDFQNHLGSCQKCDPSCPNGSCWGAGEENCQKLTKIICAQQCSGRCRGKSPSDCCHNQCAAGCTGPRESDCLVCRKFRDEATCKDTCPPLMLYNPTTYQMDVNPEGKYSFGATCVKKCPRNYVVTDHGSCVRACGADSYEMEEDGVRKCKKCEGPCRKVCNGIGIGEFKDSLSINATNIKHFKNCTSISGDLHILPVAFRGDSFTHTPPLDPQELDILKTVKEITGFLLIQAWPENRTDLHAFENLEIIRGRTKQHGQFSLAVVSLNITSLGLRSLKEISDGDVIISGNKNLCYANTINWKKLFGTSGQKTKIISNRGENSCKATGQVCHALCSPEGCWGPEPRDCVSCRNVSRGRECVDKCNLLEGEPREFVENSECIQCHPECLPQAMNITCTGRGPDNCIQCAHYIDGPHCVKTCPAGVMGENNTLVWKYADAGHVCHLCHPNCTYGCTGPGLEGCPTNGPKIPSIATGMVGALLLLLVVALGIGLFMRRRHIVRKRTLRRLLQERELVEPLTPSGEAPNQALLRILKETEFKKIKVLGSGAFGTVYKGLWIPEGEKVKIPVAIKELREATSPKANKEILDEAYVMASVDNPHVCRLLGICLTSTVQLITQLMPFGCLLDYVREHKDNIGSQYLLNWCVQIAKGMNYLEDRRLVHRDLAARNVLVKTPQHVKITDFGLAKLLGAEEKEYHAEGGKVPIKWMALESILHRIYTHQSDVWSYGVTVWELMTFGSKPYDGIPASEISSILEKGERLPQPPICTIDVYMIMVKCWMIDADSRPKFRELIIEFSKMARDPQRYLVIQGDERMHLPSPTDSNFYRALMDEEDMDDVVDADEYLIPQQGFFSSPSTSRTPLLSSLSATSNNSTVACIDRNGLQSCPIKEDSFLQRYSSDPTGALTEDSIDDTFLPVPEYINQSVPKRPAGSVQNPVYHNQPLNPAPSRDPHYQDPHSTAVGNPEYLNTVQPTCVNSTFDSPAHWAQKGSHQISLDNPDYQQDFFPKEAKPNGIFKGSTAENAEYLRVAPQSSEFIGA

| IC50 [1] | IC50 [2] | IC50 [3] | IC50 [4] | IC50 [5] | IC50 [6] | IC50 [7] | SMILES |
| --- | --- | --- | --- | --- | --- | --- | --- |
| 2000 nM |  |  |  |  |  |  | CC(C)(C)OC(=O)N1C[C@H](n2cc(-c3ccccc3)c3c(N)ncnc32)C[C@@H]1CO |
| 130 nM |  |  |  |  |  |  | Nc1ncnc2c1c(-c1ccccc1)cn2[C@H]1CN[C@@H](CO)C1 |
| 270 nM | 2100 nM | 4400 nM | 2400 nM |  |  |  | COc1cccc(-c2cn(C3CCN(C(=O)OC(C)(C)C)C3)c3ncnc(N)c23)c1 (stereo not drawn) |
| 6 nM | 295 nM | 600 nM | 360 nM | 7800 nM |  |  | COc1cccc(-c2cn(C3CCN(CCN(C)CCO)CC3)c3ncnc(N)c23)c1 |
| 230 nM |  |  |  |  |  |  | Nc1ncnc2c1c(-c1ccccc1)cn2C1CCNC1 (stereo not drawn) |
| 5 nM | 2200 nM | 3100 nM | 58 nM | > 10000 nM |  |  | CC(C)(C)OC(=O)N1CCC(n2cc(-c3cccc(O)c3)c3c(N)ncnc32)C1 (stereo not drawn) |
| 24 nM |  | 3300 nM |  |  |  |  | CC(C)(C)OC(=O)N1C[C@@H](n2cc(-c3ccc(O)cc3)c3c(N)ncnc32)C[C@@H]1CO |
| 22 nM | 350 nM | 700 nM | 550 nM |  |  |  | COc1cccc(-c2cn(C3CCN(CC(N)=O)CC3)c3ncnc(N)c23)c1 |
| 84 nM |  | 2800 nM | 1000 nM |  |  |  | COC(=O)CN1CCC(n2cc(-c3cccc(OC)c3)c3c(N)ncnc32)CC1 |
| 27 nM | 900 nM | 1400 nM | 1030 nM | > 10000 nM |  |  | COc1cccc(-c2cn(C3CCN(CCO)CC3)c3ncnc(N)c23)c1 |
| 410 nM |  |  |  |  |  |  | CCOC(=O)C[C@H]1C[C@H](n2cc(-c3ccccc3)c3c(N)ncnc32)CN1C(=O)OC(C)(C)C |
| 53 nM | 1120 nM | > 5000 nM | 1400 nM |  |  |  | COc1cccc(-c2cn(C3CCNC3)c3ncnc(N)c23)c1 (stereo not drawn) |
| 1 nM | 2540 nM | 600 nM | 98 nM | > 10000 nM |  |  | Nc1ncnc2c1c(-c1cccc(O)c1)cn2C1CCN(CCO)CC1 |
| 3 nM | 500 nM |  | 120 nM | > 10000 nM |  |  | CN(C)C(=O)CN1CCC(n2cc(-c3cccc(O)c3)c3c(N)ncnc32)CC1 |
| 5 nM |  | 3300 nM |  |  |  |  | CCOC(=O)C[C@H]1C[C@@H](n2cc(-c3ccc(O)cc3)c3c(N)ncnc32)CN1 |
| 5000 nM |  |  |  |  |  |  | CCOC(=O)C[C@H]1C[C@@H](n2cc(-c3ccccc3)c3c(N)ncnc32)CN1C(=O)OC(C)(C)C |
| 100 nM |  |  |  |  |  |  | CCOC(=O)C[C@H]1C[C@H](n2cc(-c3ccc(O)cc3)c3c(N)ncnc32)CN1 |
| 6 nM | 1530 nM | 800 nM | 290 nM | > 10000 nM |  |  | Nc1ncnc2c1c(-c1cccc(O)c1)cn2C1CCNC1 (stereo not drawn) |
| 15 nM |  | 290 nM |  | > 10000 nM | 310 nM | 310 nM | COCCNCCN1CCC(n2cc(-c3cccc(OC)c3)c3c(N)ncnc32)CC1 |
| 1 nM | 170 nM | 800 nM | 210 nM | > 10000 nM |  |  | NC(=O)CN1CCC(n2cc(-c3cccc(O)c3)c3c(N)ncnc32)CC1 |

| IC50 [1] | IC50 [2] | IC50 [3] | IC50 [4] | IC50 [5] | IC50 [6] | IC50 [7] | SMILES |
| --- | --- | --- | --- | --- | --- | --- | --- |
| 47 nM |  | 500 nM | 500 nM | > 10000 nM |  | 930 nM | COCCN(C)CCN1CCC(n2cc(-c3cccc(OC)c3)c3c(N)ncnc32)CC1 |
| 600 nM |  |  |  |  |  |  | CCOC(=O)C[C@H]1C[C@H](n2cc(-c3ccccc3)c3c(N)ncnc32)CN1 |
| 400 nM |  | 400 nM |  |  |  |  | COc1ccc(-c2cn(C3CCN(C(=O)OC(C)(C)C)C3)c3ncnc(N)c23)cc1 (stereo not drawn) |
| 300 nM |  |  |  |  |  |  | COc1ccc(-c2cn(C3CCNC3)c3ncnc(N)c23)cc1 (stereo not drawn) |
| 35 nM |  | 700 nM |  |  |  |  | CCOC(=O)C[C@H]1C[C@H](n2cc(-c3ccc(O)cc3)c3c(N)ncnc32)CN1C(=O)OC(C)(C)C |
| 15 nM |  | > 5000 nM |  |  |  |  | CCOC(=O)C[C@H]1C[C@@H](n2cc(-c3ccccc3)c3c(N)ncnc32)CN1 |
| 300 nM |  |  |  |  |  |  | CCOC(=O)C[C@H]1C[C@@H](n2cc(-c3ccc(O)cc3)c3c(N)ncnc32)CN1C(=O)OC(C)(C)C |
| 130 nM |  |  |  |  |  |  | CC(C)(C)OC(=O)N1C[C@@H](n2cc(-c3ccccc3)c3c(N)ncnc32)C[C@@H]1CO |
| 180 nM | 8300 nM | > 5000 nM |  |  |  |  | CC(C)(C)OC(=O)N1CCC(n2cc(-c3ccccc3)c3c(N)ncnc32)C1 (stereo not drawn) |
| 37 nM | 2670 nM | 2700 nM | 2800 nM |  |  |  | Nc1ncnc2c1c(-c1ccc(O)cc1)cn2C1CCNC1 (stereo not drawn) |
| 67 nM | 750 nM | > 5000 nM |  |  |  |  | COc1cccc(-c2cn(C3CCN(CC(=O)N(C)C)CC3)c3ncnc(N)c23)c1 |
| 38 nM | 440 nM | > 5000 nM | 700 nM |  |  |  | COc1cccc(-c2cn(C3CCN(CC(N)=O)C3)c3ncnc(N)c23)c1 (stereo not drawn) |
| 50 nM |  | > 5000 nM | 590 nM |  |  |  | COC(=O)CN1CCC(n2cc(-c3cccc(OC)c3)c3c(N)ncnc32)C1 (stereo not drawn) |
| 300 nM |  |  |  |  |  |  | Nc1ncnc2c1c(-c1ccccc1)cn2[C@@H]1CN[C@@H](CO)C1 |
| 4 nM | 400 nM |  | 150 nM | > 10000 nM |  |  | NC(=O)CN1CCC(n2cc(-c3cccc(O)c3)c3c(N)ncnc32)C1 (stereo not drawn) |
| 8 nM |  | 400 nM |  |  |  |  | CC(C)(C)OC(=O)N1CCC(n2cc(-c3ccc(O)cc3)c3c(N)ncnc32)C1 (stereo not drawn) |
| 350 nM |  |  |  |  |  |  | CC(C)(C)OC(=O)N1C[C@H](n2cc(-c3ccc(O)cc3)c3c(N)ncnc32)C[C@@H]1CO |
| 50 nM |  | > 5000 nM |  |  |  |  | Nc1ncnc2c1c(-c1ccc(O)cc1)cn2[C@H]1CNC(CO)C1 (single isomer, unassigned) |
| 95 nM |  | > 5000 nM |  |  |  |  | Nc1ncnc2c1c(-c1ccc(O)cc1)cn2C1CN[C@@H](CO)C1 (single isomer, unassigned) |

| SMILES | IC50 [1] | IC50 [2] | IC50 [3] | IC50 [4] | IC50 [5] | IC50 [6] | IC50 [7] |
| --- | --- | --- | --- | --- | --- | --- | --- |
| COC(=O)CN1CCC(n2cc(-c3cccc(O)c3)c3c(N)ncnc32)CC1 | < 1 nM | 800 nM | 400 nM | 56 nM | > 10000 nM |  |  |
| COC(=O)CN1CCC(n2cc(-c3cccc(O)c3)c3c(N)ncnc32)C1 (stereo not drawn) | 3 nM | 740 nM | 700 nM | 54 nM | > 10000 nM |  |  |
